ChEMBL document CHEMBL1127886, “Inhibition of the RTEM-1 -lactamase by boronic acids” (Bioorg Med Chem Lett, 1994)

biological target: Beta-lactamase TEM (Escherichia coli, UniProt P62593); assay: Inhibitory constant was determined against class A RTEM-1 Beta-lactamase from Escherichia coli
Sequence (P62593 whole entry): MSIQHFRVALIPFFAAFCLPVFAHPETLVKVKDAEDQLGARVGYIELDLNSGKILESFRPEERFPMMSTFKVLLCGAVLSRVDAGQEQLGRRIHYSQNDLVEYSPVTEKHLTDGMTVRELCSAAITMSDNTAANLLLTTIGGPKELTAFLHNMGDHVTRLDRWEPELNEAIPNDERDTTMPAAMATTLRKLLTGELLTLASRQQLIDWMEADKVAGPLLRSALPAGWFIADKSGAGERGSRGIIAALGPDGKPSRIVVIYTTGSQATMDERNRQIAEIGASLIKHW

| Structure (SMILES) | Ki [µM] |
| --- | --- |
| Nc1cccc(B(O)O)c1 | 3700 |
| Cc1ccc(CCB(O)O)cc1 | 58 |
| COc1cccc(CCB(O)O)c1 | 50 |
| OB(O)c1cccc(-c2ccccc2)c1 | 13.9 |
| O=C(O)c1ccc(CCB(O)O)cc1 | 49 |
| Cc1ccccc1CCB(O)O | 141 |
| OB(O)c1ccc(Cl)c(Cl)c1 | 143 |
| OB(O)c1ccc(Br)cc1 | 28 |
| OB(O)c1ccccc1 [PHENYLBORONIC ACID] | 491 |
| OB(O)CCc1ccc(Cl)cc1 | 41 |
| OB(O)CCC1CCCCC1 | 276 |
| COc1ccc(B(O)O)cc1 | 670 |
| OB(O)c1ccc(Cl)cc1Cl | 94 |
| OB(O)CCc1ccc(C(F)(F)F)cc1 | 43 |
| OB(O)CCc1ccc2ccccc2c1 | 44 |
| Cc1cccc(CCB(O)O)c1 | 83 |
| OB(O)CCc1ccccc1Cl | 106 |
| OB(O)CCc1cccc2ccccc12 | 101 |
| OB(O)c1cccc(Br)c1 | 83 |
| OB(O)c1ccc(F)c(Cl)c1 | 152 |
